Like-named read-outs stand apart in the source and are kept apart here.
Columns and labels:
[1] = system: K. pneumoniae 752286 (OXA-48); assay: Broth microdilution MIC; type: cell-based; details: Klebsiella pneumoniae
[2] = system: Enterobacterales expressing class C cephalosporinases; assay: organism not typed
[3] = system: Enterobacterales expressing class C cephalosporinases
[4] = system: Enterobacterales expressing class D oxacillinases (OXA-48/48-like); assay: organism not typed; type: cell-based, E. coli, K. pneumoniae
[5] = 25 isolates, BLI fixed at 4 μg/ml, AMC 2:1

Nc1nc(/C(=C/CC(=O)O)C(=O)N[C@@H]2C(=O)N3C(C(=O)O)=CCS[C@H]23)cs1 [CTB, ceftibuten]
32 µg/mL: MIC ([3]; E. aerogenes 110099 (AmpC, SHV-12)) | MIC ([3]; E. coli 3102 (AmpC, CTX-M-15, TEM-1)) | MIC ([3]; S. marcescens 134434 (AmpC, SHV-12, TEM-1)) | MIC ([3]; S. marcescens 218068 (AmpC, SHV-7, TEM-1)) | MIC ([4]; E. coli 664516 (OXA-48)) | MIC ([4]; E. coli 664522 (OXA-48)) | MIC ([4]; E. coli 664525 (OXA-48)) | MIC ([4]; K. pneumoniae 664518 (OXA-48))
8 µg/mL: MIC ([3]; E. coli J53 (AmpC, SHV-5, TEM-1)) | MIC ([3]; K. pneumoniae 178279 (AmpC, SHV-12, TEM-1)) | MIC ([3]; K. pneumoniae 217917 (CMY-2, TEM-1)) | MIC ([3]; S. marcescens 156212 (AmpC, SHV-12, TEM-1)) | MIC ([3]; S. marcescens 192478 (AmpC, SHV-12, TEM-1)) | MIC ([4]; K. pneumoniae 6299 (OXA-163)) | MIC ([4]; K. pneumoniae 722870 (OXA-48)) | MIC ([4]; K. pneumoniae DOV (OXA-48)) | MIC ([4]; K. pneumoniae KIRK (OXA-162))
≥ 64 µg/mL: MIC90 [2] | MIC90 [3, 5] | MIC ([3]; E. aerogenes 111902 (AmpC, TEM-1)) | MIC ([3]; E. coli CH1 (AmpC, CTX-M-15, SHV-1, SHV-5, TEM-1)) | MIC ([3]; E. coli SI-P026TC (CMY-2, TEM-1)) | MIC ([3]; E. coli SI-PO26 (AmpC, CMY-2, TEM-1)) | MIC ([3]; K. pneumoniae 301313 (AmpC, SHV-12, TEM-1)) | MIC ([3]; P. mirabilis SI-F014 (AmpC, TEM-72)) | MIC ([3]; S. marcescens 132253 (AmpC, CTX-M-3, OXA-1, SHV-12, TEM-1)) | MIC ([3]; S. marcescens 142397 (AmpC, SHV-7, TEM-1)) | MIC90 [4, 5] | MIC ([4]; E. coli 787112 (OXA-48)) | MIC ([4]; K. pneumoniae 664509 (OXA-48)) | MIC ([4]; K. pneumoniae BAH (OXA-204)) | MIC ([4]; K. pneumoniae DEL (OXA-232)) | MIC ([4]; K. pneumoniae SI-C17 (OXA-48))
2 µg/mL: MIC ([3]; E. aerogenes 111707 (AmpC, TEM-1)) | MIC ([3]; E. coli 128 (AmpC, SHV-12, TEM-1, Toho-2)) | MIC ([3]; E. coli EC469 (AmpC, SHV-12, TEM-1)) | MIC ([3]; K. pneumoniae SI-F100 (CMY-2, SHV-5, TEM-1))
4 µg/mL: MIC ([3]; C. freundii 134390 (AmpC, TEM-1))
0.25 µg/mL: MIC ([4]; E. coli SI-422 (OXA-48))
16 µg/mL: MIC50 [2] | MIC ([3]; K. pneumoniae 129032 (MOX-2, SHV-12, TEM-1)) | MIC ([3]; K. pneumoniae 212027 (AmpC, FOX-5, TEM-1)) | MIC ([3]; K. pneumoniae 398845 (CMY-2, SHV-12, TEM-1)) | MIC50 [4, 5] | MIC ([4]; E. coli 664507 (OXA-48)) | MIC ([4]; E. coli 664520 (OXA-48)) | MIC ([4]; E. coli 664523 (OXA-48)) | MIC ([4]; E. coli 664524 (OXA-48)) | MIC ([4]; E. coli 664526 (OXA-48)) | MIC ([4]; E. coli 664528 (OXA-48)) | MIC ([4]; K. pneumoniae 515746 (OXA-48), first line) | MIC ([4]; K. pneumoniae 515746 (OXA-48), second line) | MIC ([4]; K. pneumoniae 664438 (OXA-48)) | MIC ([4]; K. pneumoniae 664439 (OXA-48))
0.06 µg/mL: MIC ([4]; E. coli VER (OXA-48))
128 µg/mL: MIC [1]
